According to patent US6936447B1, “Autoinducer molecule” (priority 2000, dated 2005):
Read-outs that look alike come from different tables or passages of the source.

Columns and labels:
[1] = test system: V. fischeri luminescence genes (LuxR) in E. coli VJS533 (pHV200I−); conditions: literature (Eberhard et al. 1986), cited from earlier work
[2] = test system: conjugal transfer genes in Agrobacterium tumefaciens; conditions: literature (Zhang et al. 1993); cited from earlier work
[3] = test system: lasB promoter activity in E. coli MG4 (pKDT17, lasR + lasB::lacZ); assay: P. aeruginosa autoinducer bioassay (lasB::lacZ β-galactosidase reporter); type: cell-based; conditions: for β-galactosidase (lasB::lacZ promoter activity): average of four experiments ± range
Description: (§1) For production of PAI, cultures of P. aeruginosa PAO1 or E. coli TB1 containing pLasI-1 were grown to the late-logarithmic phase in A medium (Maniatis, T., Fritsch, E. F., and Sambrook, J. (1992) Molecular Cloning: A Laboratory Manual, ed. Nolan C. (Cold Spring Harbor Laboratory, Cold Spring Harbor, N.Y.), 2nd Ed) supplemented with 0.4% glucose, 0.05% yeast extract, and 1 mM MgSO4 with shaking at 37° C., unless otherwise specified. For subsequent use in autoinducer bioassays, E. coli MG4 containing pKDT17 was grown in supplemented A medium at 30° C. with shaking, and E. coli VJS533 containing pHV200I^− was grown in L broth (Silhavy, T. J., Berman, M. L. and Enquist, L. W. (1984) Experiments with Gene Fusions (Cold Spring Harbor Lab., Cold Spring Harbor, N.Y.), P. 217) at 30° C. with shaking. For plasmid screening and maintenance, ampicillin (100 μg/ml) was included in E. coli cultures, and carbenicillin (200 ug/ml) was included in cultures of P. aeruginosa.
For the bioassay, overnight cultures of E. coli containing the lasB-promoter reporter, pKDT17 were diluted in supplemented A mediun to an optical density of 0.1 at 660 nm, and stored on ice. Each bioassay consisted of 2 ml of the cell suspension plus the test sample. After 5.5 h at 30° C. with shaking, β-galactosidase activity was measured by the CHCl3-sodium dodecyl sulfate method described by Miller (Miller, J. A. (1976) Experiments in Molecular Genetics (Cold Spring Harbor Lab., Cold Spring Harbor, N.Y.), pp. 352-355). As described in Example 1, there was a linear dose response to autoinducer in this bioassay. Without addition of autoinducer, β-galactosidase activities were 25±10 Miller units, and with saturating amounts of autoinducer, β-galactosidase activities were 1300±200 Miller units. A unit of P. aeruginosa autoinducer activity is defined as that amount required to achieve ½-saturation in the bioassay.

LasR protein = biological target: T1, LasR protein (Pseudomonas aeruginosa, UniProt P25084); assay: Activation of the LasR protein by optical isomers
T1 construct: expressed in transfected cells; host or cells: E. coli MG4 containing pKDT17 (plac-lasR plus lasB::lacZ reporter)

[4] = test system: V. fischeri luminescence genes (LuxR) in E. coli VJS533 (pHV200I−); assay: V. fischeri autoinducer bioassay (luminescence); type: cell-based
Description: as §1
The quantitative assay for VAI was based on those described elsewhere (Kaplan, H. B. and Greenberg, E. P. (1985) J. Bacteriol. 163, 1210-1214; Bainton, N. J., Bycroft, B. W., Chhabra, S. R., Stead, P., Gledhill, L., Hill, P. J., Rees, C. E. D., Winson, M. K., Salmond, G. P. C., Stewart, G. S. A. B. and Williams, P. (1992) Gene 116, 87-91; Nealson, K. H. (1977) Arch. Microbiol. 112, 73-79). E. coli VJS533 containing pHV200I^− was used to test for V. fischeri autoinducer activity. The plasmid, pHV200I^− contains all of the V. fischeri genes necessary for autoinducible luminescence in E. coli, however, the gene encoding autoinducer synthase, luxI, is inactivated such that E. coli containing pHV200I^− is not luminescent without addition of VAI. Overnight cultures of E. coli containing pHV200I^− were diluted to an optical density of 0.01 at 660 nm in an assay medium consisting of 0.05% tryptone, 0.03% glycerol, 100 mM NaCl, 50 mM MgSO4, and 10 mM potassium phosphate, pH 7. […] After 3 hours at room temperature, luminescence was measured by using a Beckman LS 1800 Scintillation Counter that was set for single photon counting. […]

T1 sequence (P25084 whole entry): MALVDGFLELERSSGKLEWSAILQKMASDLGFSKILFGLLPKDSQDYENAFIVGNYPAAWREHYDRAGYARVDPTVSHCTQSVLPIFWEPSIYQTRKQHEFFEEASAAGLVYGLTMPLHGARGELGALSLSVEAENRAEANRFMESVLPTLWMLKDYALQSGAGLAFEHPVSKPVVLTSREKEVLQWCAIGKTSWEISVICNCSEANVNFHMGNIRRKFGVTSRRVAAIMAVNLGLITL

CCCCCC(=O)CC(=O)NC1CCOC1=O (centres unmarked) [AAI, N-(3-oxooctanoyl)homoserine lactone]
activity with V. fischeri LuxR / luminescence genes [1]: shows activity
activity with V. fischeri LuxR / luminescence genes ([1]; listed as N-(3-oxooctanoyl)homoserine lactone): some activity
activity as the A. tumefaciens autoinducer [2]: shows activity
activity as P. aeruginosa autoinducer (inducer of lasB promoter), in words [3]: considerable activity
β-galactosidase (lasB::lacZ promoter activity) ([3]; 50 nM autoinducer added): 56 +/− 5 Miller units
β-galactosidase (lasB::lacZ promoter activity) ([3]; 500 nM autoinducer added): 733 +/− 50 Miller units
concentration required for activity as the P. aeruginosa autoinducer, compared with PAI ([3]; relative to PAI): higher
maximal response as P. aeruginosa autoinducer, compared with PAI ([3]; relative to PAI): lower

CCCCCCCCCC(=O)CC(=O)N[C@H]1CCOC1=O (single isomer, unassigned) [D-isomer, N-(3-oxododecanoyl)homoserine lactone]
activity of the isomer (activation of the LasR protein) (LasR protein): small amount of activity
inhibition of the ability of the L-isomer to activate the LasR protein (LasR protein; by attaching to the autoinducer binding domain of LasR): can inhibit

CCCCCCCCCC(=O)CC(=O)NC1CCOC1=O [N-(3-oxododecanoyl) L-homoserine lactone, N-(3-oxododecanoyl)homoserine lactone]
activity as P. aeruginosa autoinducer (inducer of lasB promoter), in words [3]: biologically active
EC50 ([3]; Escherichia coli, read-out: half-maximal response in P. aeruginosa autoinducer bioassay): 3 to 5 nM
activity of the isomer (activation of the LasR protein) (LasR protein): active form
VAI activity (induction of luminescence) of HPLC peaks ([4]; HPLC fractions of PAI peaks): no significant VAI activity

CCCC(=O)CC(=O)N[C@H]1CCOC1=O [VAI, N-(3-oxohexanoyl)homoserine lactone]
activity as P. aeruginosa autoinducer (inducer of lasB promoter), in words [3]: did not show any detectable activity
β-galactosidase (lasB::lacZ promoter activity) ([3]; 50 nM autoinducer added): 33 +/− 3 Miller units
β-galactosidase (lasB::lacZ promoter activity) ([3]; 500 nM autoinducer added): 34 +/− 1 Miller units
activity in the P. aeruginosa autoinducer bioassay ([3]; concentrations as high as 1 uM): no detectable activity
concentration giving maximal response in the V. fischeri autoinducer bioassay [4]: about 50 nM
EC50 ([4]; synthetic VAI standard curve, read-out: half-maximal response in V. fischeri autoinducer bioassay (one unit of activity)): ~25 nM
